Counter-ions that a name gives are not always drawn. Like-named read-outs stand apart in the source and are kept apart here.
What was measured:
[1] = molecular target: S. aureus 133 Translation; assay: S. aureus in vitro transcription-translation assay (firefly luciferase, S30 extract); assay type: biochemical; conditions: 50% inhibition of the translation of firefly luciferase
Source text: In Vitro Transcription-Translation with S. aureus Extracts
Construction of an S. aureus Luciferase Reporter Plasmid
In order to construct a reporter plasmid which can be used in an in vitro transcription-translation assay from S. aureus the plasmid pBESTluc (Promega Corporation, USA) is used. The E. coli tac promoter present in this plasmid in front of the firefly luciferase is replaced with the capA1 promoter with corresponding Shine-Dalgarno sequence from S. aureus. The primers CAPF or 5′-[…]-[…]-3′ and CAPRev 5′-[…]-3′ are used for this. The primer CAPFor contains the capA1 promoter, the ribosome binding site and the 5′ region of the luciferase gene. After PCR using pBESTluc as template it is possible to isolate a PCR product which contains the firefly luciferase gene with the fused capA1 promoter. This is, after restriction with ClaI and HindIII, ligated into the vector pBESTluc which has likewise been digested with ClaI and HindIII. The resulting plasmid p1a can be replicated in E. coli and be used as template in the S. aureus in vitro transcription-translation test.
Preparation of S30 Extracts from S. aureus
Six litres of BHI medium are inoculated with a 250 ml overnight culture of an S. aureus strain and allowed to grow at 37° C. up to an OD600 nm of 2-4. The cells are harvested by centrifugation and washed in 500 ml of cold buffer A (10 mM Tris acetate, pH 8.0, 14 mM magnesium acetate, 1 mM DTT, […]). After renewed centrifugation, the cells are washed in 250 ml of cold buffer A with 50 mM KCl, and the resulting pellets are frozen at −20° C. for 60 min. The pellets are thawed on ice in 30 to 60 min and taken up to a total volume of 99 ml in buffer B (10 mM Tris acetate, pH 8.0, 20 mM magnesium acetate, 1 mM DTT, 50 mM KCl). 1.5 ml portions of lysostaphin (0.8 mg/ml) in buffer B are provided in 3 precooled centrifuge cups and each mixed with 33 ml of the cell suspension. The samples are incubated at 37° C., for 45 to 60 min shaking occasionally, before 150 μl of a 0.5 M DTT solution are added. The lysed cells are centrifuged at 30 000×g and 4° C. for 30 min. The cell pellet is taken up in buffer B and then centrifuged again under the same conditions, and the collected supernatants are combined. The supernatants are centrifuged again under the same conditions, and 0.25 volumes of buffer C (670 mM Tris acetate, pH 8.0, 20 mM magnesium acetate, 7 mM Na3 phosphoenolpyruvate, 7 mM DTT, 5.5 mM ATP, 70 μM amino acids (complete from Promega), 75 μg of pyruvate kinase (Sigma, Germany))/ml are added to the upper ⅔ of the supernatant. […]
The inhibition of protein biosynthesis of the compounds can be shown in an in vitro transcription-translation assay. […] The activity of the resulting luciferase can be detected by luminescence measurement. […]

[2] = tested on: S. aureus 133; assay: Minimum inhibitory concentration (MIC), S. aureus 133; assay type: cell-based
Protocol: (§1) Determination of the Minimum Inhibitory Concentration (MIC)
(§2) The minimum inhibitory concentration (MIC) is the minimum concentration of an antibiotic with which the growth of a test microbe is inhibited over 18-24 h. The inhibitor concentration can thereby be determined by standard microbiological methods (see, for example, The National Committee for Clinical Laboratory Standards. Methods for dilution antimicrobial susceptibility tests for bacteria that grow aerobically; approved standard-fifth edition. NCCLS document M7-A5 [ISBN 1-56238-394-9]. NCCLS, 940 West Valley Road, Suite 1400, Wayne, Pa. 19087-1898 USA, 2000). The MIC of the compounds of the invention is determined in the liquid dilution test on the 96-well microtiter plate scale. The bacterial microbes are cultivated in a minimal medium (18.5 mM Na2HPO4, 5.7 mM KH2PO4, 9.3 mM NH4Cl, 2.8 mM MgSO4, 17.1 mM NaCl, 0.033 μg/ml of thiamine hydrochloride, 1.2 μg/ml of nicotinic acid, 0.003 μg/ml of biotin, 1% glucose, 25 μg/ml of each proteinogenic amino acid with the exception of phenylalanine; [H.-P. Kroll; unpublished]) with addition of 0.4% BH broth (test medium). In the case of Enterococcus faecium L4001, heat-inactivated fetal calf serum (FCS; GibcoBRL, Germany) is added to the test medium in a final concentration of 10%. Overnight cultures of the test microbes are diluted to an OD578 of 0.001 (to 0.01 in the case of enterococci) in fresh test medium, and incubated 1:1 with dilutions of the test substances (1:2 dilution steps) in test medium (200 μl final volume). The cultures are incubated at 37° C. for 18-24 hours; enterococci in the presence of 5% CO2.
(§3) The lowest substance concentration in each case at which no visible bacterial growth occurs any longer is defined as the MIC.
(§4) Alternative Method for Determining the Minimum Inhibitory Concentration (MIC)
The minimum inhibitory concentration (MIC) is the minimum concentration of an antibiotic with which the growth of a test microbe is inhibited over 18-24 h. The inhibitor concentration can thereby be determined by standard microbiological methods with modified medium in an agar dilution test (see, for example, The National Committee for Clinical Laboratory Standards. Methods for dilution anti-microbial susceptibility tests for bacteria that grow aerobically; approved standard-fifth edition. NCCLS document M7-A5 [ISBN 1-56238-394-9]. NCCLS, 940 West Valley Road, Suite 1400, Wayne, Pa. 19087-1898 USA, 2000). The bacterial microbes are cultivated on 1.5% agar plates which contain 20% defibrinated horse blood. The test microbes, which are incubated overnight on Columbia blood agar plates (Becton-Dickinson), are diluted in PBS, adjusted to a microbe count of about 5×10^5 microbes/ml and placed dropwise (1-3 μl) on test plates. […]

[3] = tested on: S. aureus T17; assay: Minimum inhibitory concentration (MIC), biphenomycin-resistant S. aureus T17; assay type: cell-based; conditions: for MIC: Staphylococcus aureus, T17
Protocol: as §1, §2, §3, §4
The minimum inhibitory concentration (MIC) is the minimum concentration of an antibiotic with which the growth of a test microbe is inhibited over 18-24 h. The inhibitor concentration can thereby be determined by standard microbiological methods with modified medium in an agar dilution test (see, for example, The National Committee for Clinical Laboratory Standards. Methods for dilution anti-microbial susceptibility tests for bacteria that grow aerobically; approved standard-fifth edition. NCCLS document M7-A5 [ISBN 1-56238-394-9]. NCCLS, 940 West Valley Road, Suite 1400, Wayne, Pa. 19087-1898 USA, 2000). The bacterial microbes are cultivated on 1.5% agar plates which contain 20% defibrinated horse blood. The test microbes, which are incubated overnight on Columbia blood agar plates (Becton-Dickinson), are diluted in PBS, adjusted to a microbe count of about 5×10^5 microbes/ml and placed dropwise (1-3 μl) on test plates. The test substances comprise different dilutions of the test substances (1:2 dilution steps). The cultures are incubated at 37° C. in the presence of 5% CO2 for 18-24 hours.
The lowest substance concentration in each case at which no visible bacterial growth occurs any longer is defined as the MIC and is reported in μg/ml.
The S. aureus strain T17 is isolated in vivo. CFW1 mice are infected intraperitoneally with 4×10^7 S. aureus 133 cells per mouse. 0.5 h after the infection, the animals are treated intravenously with 50 mg/kg of biphenomycin B. The kidneys are removed from the surviving animals on day 3 after the infection. […]

[4] = tested on: S. aureus 133; assay: Systemic infection with S. aureus 133 (mouse sepsis model); assay type: in vivo; conditions: female CFW1 mice, i.p. infection, i.v. therapy 30 minutes after infection, survival over 6 days
[5] = tested on: S. aureus RN4220Bi^R; assay: MIC against biphenomycin-resistant S. aureus RN4220Bi^R; assay type: cell-based; conditions: colony isolated in vitro from antibiotic-containing plate
Protocol: (§5) The S. aureus strain RN4220Bi^R is isolated in vitro. For this purpose, 100 μl portions of an S. aureus RN4220 cell suspension (about 1.2×10^8 cfu/ml) are plated out on an antibiotic-free agar plate (18.5 mM Na2HPO4, 5.7 mM KH2PO4, 9.3 mM NH4Cl, 2.8 mM MgSO4, 17.1 mM NaCl, 0.033 μg/ml of thiamine hydrochloride, 1.2 μg/ml of nicotinic acid, 0.003 μg/ml of biotin, 1% glucose, 25 μg/ml of each proteinogenic amino acid with the addition of 0.4% BH broth and 1% agarose) and on an agar plate containing 2 μg/ml of biphenomycin B (10×MIC), and incubated at 37° C. overnight. Whereas about […] cells grow on the antibiotic-free plate, about 100 colonies grow on the antibiotic-containing plate, corresponding to a resistance rate of 1×10^−5. Some of the colonies grown on the antibiotic-containing plate are tested for the biphenomycin B MIC. One colony with a MIC of >50 μM is selected for further use, and the strain is referred to as RN4220Bi^R.

[6] = tested on: S. aureus RN4220; assay: Spontaneous resistance rate, S. aureus RN4220; assay type: cell-based; conditions: agar plate containing 2 μg/ml of biphenomycin B (10×MIC), 37° C. overnight
Protocol: The spontaneous resistance rates for the compounds of the invention are determined as follows: the bacterial microbes are cultivated in 30 ml of a minimal medium (18.5 mM Na2HPO4, 5.7 mM KH2PO4, 9.3 mM NH4Cl, 2.8 mM MgSO4,17.1 mM NaCl, 0.033 μg/ml of thiamine hydrochloride, 1.2 μg/ml of nicotinic acid, 0.003 μg/ml of biotin, 1% glucose, 25 μg/ml of each proteinogenic amino acid with the addition of 0.4% BH broth) at 37° C. over-night, centrifuged at 6000×g for 10 min and resuspended in 2 ml of a phosphate-buffered physiological NaCl solution (about 2×10^9 microbes/ml). […] The resulting colonies (cfu) are counted.
as §5, with “Some of the colonies grown on the antibiotic-containing plate are tested for the biphenomycin B MIC. One colony with a MIC of >50 μM is selected for further use, and the strain is referred to as RN4220Bi^R.” left out

[7] = Staphylococcus aureus, 133, read-out: MIC S. aureus 133

Row | Compound | IC50 [1] | MIC ([3]; biphenomycin-resistant strain) | MIC [2, 7] | further results
1 | NCCC[C@H](N)CNC(=O)C[C@H](CCCN)NC(=O)C[C@@H]1Cc2cccc(c2)-c2ccc(O)c(c2)C[C@H](N)C(=O)N[C@@H](CCCN)C(=O)N1 [Example 1, (3S)-6-Amino-3-({[(8S11,S14S)-14-amino-11-(3-aminopropyl)-17-hydroxy-10,13-dioxo-9,12-diazatricyclo[14.3.1.1^2,6]henicosa-1(20),2(21),3,5,16,18-hexaen-8-yl]acetyl{amino)-N-[(2S)-2,5-diaminopentyl]hexanamidepentahydrochloride] | 350 nM | 2 µg/mL | – | MIC ([2]; Staphylococcus aureus, 133; read-out: MIC S. aureus 133): 2 µg/mL
2 | NCCC[C@H](NC(=O)C[C@@H]1Cc2cccc(c2)-c2ccc(O)c(c2)C[C@H](N)C(=O)N[C@@H](CCCN)C(=O)N1)C(=O)NCCN [Example 2, N^2-{[(8S,11S,14S)-14-Amino-11-(3-aminopropyl)-17-hydroxy-10,13-dioxo-9,12-diazatricyclo[14.3.1.1^2,6]henicosa-1(20), 2(21),3,5,5,16,18-hexaen-8-yl]acetyl}-N-(2-aminoethyl)-L-ornithinamide tetrahydrochloride] | – | – | – | therapeutic activity ED100 [4]: 1.25 mg/kg
3 | NCCC[C@H](N)CNC(=O)C[C@@H](N)CCCNC(=O)[C@H](CCCN)NC(=O)C[C@@H]1Cc2cccc(c2)-c2ccc(O)c(c2)C[C@H](N)C(=O)N[C@@H](CCCN)C(=O)N1 [Example 7, (3S)-3-Amino-6-[(N^2-{[(8S,11S,14S)-14-amino-11-(3-aminopropyl)-17-hydroxy-10,13-dioxo-9,12-diazatricyclo[14.3.1.1^2,6]henicosa-1(20), 2(21), 3,5,16,18-hexaen-8-yl]acetyl}-L-ornithyl)amino]-N-[(2S)-2,5-diaminopentyl]hexanamide hexahydrochloride] | 200 nM | 2 µg/mL | 2 µg/mL | –
4 | NCCC[C@H](N)CNC(=O)C[C@@H]1Cc2cccc(c2)-c2ccc(O)c(c2)C[C@H](N)C(=O)N[C@@H](CCCN)C(=O)N1 [Example 5, 2-[(8S,11S,14S)-14-Amino-11-(3-aminopropyl)-17-hydroxy-10,13-dioxo-9,12-diazatricyclo[14.3.1.1^2,6]henicosa-1(20),2(21),3,5,16,18-hexaen-8-yl]-N-[(2S)-2,5-diaminopentyl]acetamide tetrahydrochloride] | 700 nM | 2 µg/mL | 2 µg/mL | –
5 | NC[C@H](O)C[C@@H]1NC(=O)[C@@H](N)Cc2cc(ccc2O)-c2ccc(O)c(c2)C[C@@H](C(=O)O)NC1=O [Biphenomycin B, biphenomycin B, reference compound] | 1500 nM | – | – | MIC S. aureus 133 [2]: <0.03 µg/mL; MIC of selected colony (strain RN4220Bi^R) [5]: > 50 µM; resistance rate [6]: 1×10^−5; MIC S. aureus T17 ([3]; biphenomycin-resistant strain): >32 µg/mL; MIC of selected colony (strain T17) ([3]; colony isolated in vivo from kidney of treated mice): > 50 µM

From US20080306040A1, “Antibacterial amide macrocycles VII” (priority 2005, published 2008)
